Here are results for three compounds from patent publication US4785090A, “Cephalosporin derivatives” (Meiji Seika Kaisha, Ltd., priority 1984, dated 1988).

One data set has as its system Proteus rettgeri GN624. Nature of the data set: Minimum Growth Inhibitory Concentration (MIC), Proteus rettgeri GN624. The following applies: Providencia rettgeri, GN624, read-out: Minimum Growth Inhibitory Concentration (MIC). The class given is cell-based. From the text:
(§1) Minimum Growth Inhibitory Concentration (MIC) mcg/ml
9. Proteus rettgeri GN624

Data set [1] relates to Klebsiella pneumoniae PCI 602. Nature of the data set: Minimum Growth Inhibitory Concentration (MIC), Klebsiella pneumoniae PCI 602. The class given is cell-based. The following applies: Klebsiella pneumoniae, PCI602, read-out: Minimum Growth Inhibitory Concentration (MIC).
Description: as §1
5. Klebsiella pneumoniae PCI 602

Data set [2] deals with Staphylococcus aureus Smith. Nature of the data set: Minimum Growth Inhibitory Concentration (MIC), Staphylococcus aureus Smith. The class given is cell-based. The following applies: Staphylococcus aureus, read-out: Minimum Growth Inhibitory Concentration (MIC).
Description: as §1
1. Staphylococcus aureus Smith

In data set [3] the test system is Cephalosporinase-producing Escherichia coli GN206. Kind of data set: Treatment of experimental infection in mice (Escherichia coli GN206). The class given is in vivo. The following applies: intraperitoneal infection 1.25×10^6 CFU/mouse, subcutaneous one hour after infection, survival at one week.
A further data set has as its system Eshcerichia coli GN 206. Kind of data set: Minimum Growth Inhibitory Concentration (MIC), Escherichia coli GN 206. The class given is cell-based.
Description: as §1
4. Eshcerichia coli GN 206

Data set [4] concerns Staphylococcus aureus 209PJC1. Kind of data set: Minimum Growth Inhibitory Concentration (MIC), Staphylococcus aureus 209PJC1. The class given is cell-based.
Description: as §1
1. Staphylococcus aureus 209PJC1
as §1
2. Staphylococcus aureus 209 PJC1

Data set [5] can be described thus: Serum concentration in mice after subcutaneous administration. The class given is in vivo. As to conditions: mouse, sc, subcutaneous 25 mg/kg; for concentration at 0.5 h: 1/2 hr; for concentration at 0.25 h: 1/4 hr; for concentration at 5 min: 1/12 hr. As for the experimental part:
The experiment was conducted by using 3 mice (average body weight 20 g) in each group, subcutaneously administering 25 mg/kg of the sample, taking blood samples at predetermined intervals, separating the serum and measuring the sample concentration by an antibacterial activity test using Escherichia coli as a testing bactera.

Data set [6] has as its system Salmonella typhimurium LT2. Kind of data set: Minimum Growth Inhibitory Concentration (MIC), Salmonella typhimurium LT2. The class given is cell-based. As to conditions: Salmonella enterica, TYPHIMURIUM, read-out: Minimum Growth Inhibitory Concentration (MIC).
Description: as §1
7. Salmonella typhimurium LT2

The test system of the next data set is Proteus vulgaris GN 76. Nature of the data set: Minimum Growth Inhibitory Concentration (MIC), Proteus vulgaris GN 76. The class given is cell-based.
Description: as §1
10. Proteus vulgaris GN 76
as §1
8. Proteus vulgaris GN 76

The subject of a further data set is Proteus mirabilis GN 79. Kind of data set: Minimum Growth Inhibitory Concentration (MIC), Proteus mirabilis GN 79. The class given is cell-based. As to conditions: Proteus mirabilis, GN79, read-out: Minimum Growth Inhibitory Concentration (MIC).
Description: as §1
6. Proteus mirabilis GN 79

Data set [7] has as its system Serratia marcescens No. 2. Kind of data set: Minimum Growth Inhibitory Concentration (MIC), Serratia marcescens No. 2. The class given is cell-based. The following applies: Serratia marcescens, NO.2, read-out: Minimum Growth Inhibitory Concentration (MIC).
Description: as §1
10. Serratia marcescens No. 2

Data set [8] concerns Escherichia coli NIHJ JC2. Nature of the data set: Minimum Growth Inhibitory Concentration (MIC), Escherichia coli NIHJ JC2. The following applies: Escherichia coli, NIHJJC2, read-out: Minimum Growth Inhibitory Concentration (MIC). The class given is cell-based.
Description: as §1
3. Escherichia coli NIHJ JC2

The nature of data set [9]: Toxicity test in mice (intravenous). The following applies: for LD50 at 168 h: mouse, in vivo. The class given is in vivo. From the text: Further, the compound of Example 28 was intravenously adminstered to 3 mice at a dose of 1 g/kg and also the compounds of Examples 34 and 51 were similarly administered at a dose of 3 g/kg respectively, and the number of survivor was examined after a week.

For data set [10], the system named is Streptococcus faecalis ATCC 8043. Kind of data set: Minimum Growth Inhibitory Concentration (MIC), Streptococcus faecalis ATCC 8043. The class given is cell-based. The following applies: Enterococcus faecalis, ATCC8043; Table 1, bacterium 9: Streptococcus faecalis ATCC 8043.
Description: as §1
9. Streptococcus faecalis ATCC 8043

Data set [11] relates to Pseudomonas aeruginosa MB 3833. Nature of the data set: Minimum Growth Inhibitory Concentration (MIC), Pseudomonas aeruginosa MB 3833. The class given is cell-based. The following applies: MB3833; Table 1, bacterium 8: Pseudomonas aeruginosa MB 3833.
Description: as §1
8. Pseudomonas aeruginosa MB 3833

A further data set concerns Serratia marcescens N 01. Kind of data set: Minimum Growth Inhibitory Concentration (MIC), Serratia marcescens N 01. The class given is cell-based. The following applies: N01; Table 1, bacterium 7: Serratia marcescens N 01.
Description: as §1
7. Serratia marcescens N 01

The subject of data set [12] is Klebsiella pneumoniae GN 69. Kind of data set: Minimum Growth Inhibitory Concentration (MIC), Klebsiella pneumoniae GN 69. The class given is cell-based. As to conditions: GN69; Table 1, bacterium 4: Klebsiella pneumoniae GN 69.
Description: as §1
4. Klebsiella pneumoniae GN 69

The test system of data set [13] is Enterobacter cloacae G0005. Kind of data set: Minimum Growth Inhibitory Concentration (MIC), Enterobacter cloacae G0005. As to conditions: Table 1, bacterium 11: Enterobacter cloacae G0005. The class given is cell-based.
Description: as §1
11. Enterobacter cloacae G0005

For a further data set, the system named is Escherichia coli RGN 823. Kind of data set: Minimum Growth Inhibitory Concentration (MIC), Escherichia coli RGN 823. The class given is cell-based. The following applies: RGN823; Table 1, bacterium 3: Escherichia coli RGN 823.
Description: as §1
3. Escherichia coli RGN 823

A further data set has as its system Bacillus subtilis. Nature of the data set: Minimum Growth Inhibitory Concentration (MIC), Bacillus subtilis. The class given is cell-based. As to conditions: Table 1, bacterium 2: Bacillus subtilis.
Description: as §1

Where [14] appears, read: Table 1, bacterium 1: Staphylococcus aureus 209PJC1, read-out: Minimum Growth Inhibitory Concentration (MIC).
The mark [15] stands for this setting: GN76, Table 1, bacterium 10: Proteus vulgaris GN 76, read-out: Minimum Growth Inhibitory Concentration (MIC).

The structures appear in SMILES notation. Where a name gives a salt, the structure may show the parent alone. Read-outs that look alike come from different tables or passages of the source.

In the case of `CCO/N=C(\C(=O)N[C@@H]1C(=O)N2C(C(=O)O)=C(CSc3cc[n+](CC(=O)O)cc3)CS[C@H]12)c1csc(N)n1.[Na+]`, the MIC in the data set with Proteus rettgeri GN624 stood at 1.56 µg/mL; in data set [1], 0.05 µg/mL; in [2], 0.78 µg/mL; in the data set on Eshcerichia coli GN 206 (GN206, read-out: Minimum Growth Inhibitory Concentration (MIC)), 0.39 µg/mL; in the data set with Eshcerichia coli GN 206 (GN206, read-out: minimum growth inhibitory concentration (MIC)), 0.39 µg/mL; in data set [4] (Staphylococcus aureus, 209PJC1, read-out: Minimum Growth Inhibitory Concentration (MIC)), 0.39 µg/mL. The MIC came to 0.1 µg/mL in data set [6]; 0.1 µg/mL with Proteus vulgaris GN 76 (Proteus vulgaris, GN76, read-out: Minimum Growth Inhibitory Concentration (MIC)); 0.39 µg/mL with Proteus mirabilis GN 79; 0.2 µg/mL in data set [7]; 0.78 µg/mL in data set [8]. The ED50 in data set [3] is 0.065 mg/mouse. Moreover, in data set [5], the concentration at 0.5 h worked out at 28500 ng/mL. In addition, in data set [5], the concentration at 0.25 h was determined as 31000 ng/mL. Further, the concentration at 5 min in data set [5] was 26000 ng/mL. The same compound gave a concentration at 1 h in [5] of 4000 ng/mL. In data set [9] (mice, intravenous, 1 g/kg), the “survival after a week” value is reported as “all the mice survived”. Further, the LD50 at 168 h in data set [9] (mice, intravenous, survivors after a week) was ≥ 1000 mg/kg.
Regarding `CO/N=C(\C(=O)N[C@@H]1C(=O)N2C(C(=O)[O-])=C(CSc3cc[n+](CC(=O)O)c4c3CCC4)CS[C@H]12)c1csc(N)n1` [Example 34, (6R,7R)-7-[(Z)-2-(2-Aminothiazol-4-yl)-2-methoxyiminoacetamido]-3-[(2,3-cyclopenteno-1-carboxymethylpyridinium-4-yl)thiomethyl]-ceph-3-em-4-carboxylicacid sodium salt], the MIC is 6.25 µg/mL in [10]; 6.25 µg/mL in [11]; 0.78 µg/mL in [4] (setting [14]); 0.1 µg/mL in the data set with Proteus vulgaris GN 76 (setting [15]); 0.05 µg/mL in the data set with Serratia marcescens N 01; ≤ 0.025 µg/mL in [12]. In addition, the MIC is 0.2 µg/mL in data set [13], ≤ 0.025 µg/mL in the data set with Escherichia coli RGN 823 and 1.56 µg/mL in the data set on Bacillus subtilis. The compound also registered an ED50 in [3] of 0.3 mg/mouse. The concentration at 0.5 h in data set [5] is 21000 ng/mL. Besides, the concentration at 0.25 h in data set [5] was 35000 ng/mL. Moreover, in [5], the concentration at 5 min amounted to 25000 ng/mL. In data set [5], this compound displayed a concentration at 1 h of 6400 ng/mL. In addition, in data set [9] (iv), the LD50 at 168 h was ≥ 3000 mg/kg.
In the case of `C[n+]1ccc(SCC2=C(C(=O)[O-])N3C(=O)[C@@H](NC(=O)/C(=N\OCC(=O)O)c4csc(N)n4)[C@H]3SC2)c2c1CCC2` [Example 51, (6R,7R)-7-[(Z)-2-(2-Aminothiazol-4-yl)-2-(carboxymethoxyimino)acetamido]-3-[(2,3-cyclopenteno-1-methylpyridinium-4-yl)thiomethyl]-ceph-3-em-4-carboxylic acid sodium salt], the MIC was 1.56 µg/mL in [10]; 6.25 µg/mL in [11]; 1.56 µg/mL in data set [4] (setting [14]); ≤ 0.025 µg/mL in the data set on Proteus vulgaris GN 76 (setting [15]); ≤ 0.025 µg/mL in the data set with Serratia marcescens N 01; ≤ 0.025 µg/mL in data set [12]. Further, the MIC in data set [13] is 0.05 µg/mL; against Escherichia coli RGN 823, 0.1 µg/mL; against Bacillus subtilis it was 0.05 µg/mL. This compound returned an ED50 in [3] of 0.37 mg/mouse. This compound yielded a concentration at 0.5 h in data set [5] of 24000 ng/mL. Besides, the concentration at 0.25 h in [5] is 34000 ng/mL. The concentration at 5 min in [5] stood at 27000 ng/mL. In [5], this compound registered a concentration at 1 h of 5400 ng/mL. Besides, in [9] (iv), the LD50 at 168 h was ≥ 3000 mg/kg.
